Experimental findings from a melting point compilation (Tetko et al.; mined from patent text by program, amines drawn as free bases though some values may be those of a salt) are described below.

Bounds are passed on as bounds.

As to `C[C@H]1C[C@@]2(N)CN(c3c(F)cc4c(=O)c(C(=O)O)cn5c4c3OC[C@@H]5C)C[C@@H]12`, the melting point lay within 122 to 124 °C.
`NC(=S)CN1CCCC1=S` returned a melting point of 154 to 156 °C.
For the molecule `CCSc1cc(C)nc(SCC)c1NC(=O)CCCSc1nc2ccccc2o1`, the melting point is 123 to 125 °C.
The same measure for `CON=C(C)c1ccc(C(=O)Nc2ccc(C(C)(C)C)cc2)cc1`: 154 to 155 °C; for `COc1ccc(Cc2ccc3[nH]c4cnn(C)c4c(=O)c3c2)cc1`: 248 to 249 °C; for `OCCON=Cc1ccc2ccccc2c1`: 87 °C.
To `CCOC(=O)CNCc1c(N)ccc(Cl)c1Cl` belongs 56 to 60 °C.
The same measure for `C=CC(=O)OC12Oc3cc(C(C)C)ccc3C1(O)C(=O)c1ccccc12` (stereo not drawn): 95 to 97 °C; for `O=C1O[C@@H](CNC(=S)C(F)F)CN1c1ccc(C2CCS(=O)CC2)c(F)c1` (stereo partly drawn): 192 to 194 °C.
The molecule `Cc1cc(C2(C(F)(F)F)CC(c3ccc(S(C)=O)cc3)=NO2)ccc1N` (stereo not drawn) had a melting point of 68.5 to 77 °C.
To `Cc1nc(N)c([N+](=O)[O-])cc1Cl` belongs 214 to 215 °C; to `O=C(Nc1cccc(F)c1)NC1CCN(S(=O)(=O)c2cccc(C(F)(F)F)c2)CC1`, 86 to 88 °C.
With `CC(C)(C)c1ccc(C(NC(=O)c2c(F)cccc2Cl)N2CCOCC2)cc1` (stereo not drawn), the melting point is 180 to 181 °C.
To `O=C1CCC(c2ccc(Br)cc2)CC1` belongs 59.4 to 61.4 °C; to `CCSc1cc(=O)c2c(O)cc(OC)c(C3CCN(C)CC3O)c2o1` (stereo not drawn), 60 °C.
In turn, `Cc1c2c(cn1C)NC(=O)C(O)N=C2c1ccccc1` (stereo not drawn) displayed a melting point of 243 °C.
To `CCCNC(=O)c1cccnc1Oc1cccnc1` belongs 55 to 56 °C; to `c1ccc(C2CNc3c4c(nc5cccc(c35)O2)CCCC4)cc1` (stereo not drawn), 194 to 195 °C; to `CN(C)C(=O)C1CCCN(c2cc3ccccc3c(=O)[nH]2)C1` (stereo not drawn), 187 to 188 °C.
On to `CNC(=O)c1cc(N(C)C)ccc1Nc1nc(Nc2cc3c(cc2OC)CCN(CC(=O)N(C)C)CC3)ncc1Cl`, for which the melting point lay within 96 to 110 °C.
To `COc1cc(-c2cc(C(F)(F)F)nn2-c2ccc(S(C)(=O)=O)cc2)ccc1-c1ccco1` belongs 138 to 140 °C.
As for `COc1ccc2cc(C(=O)c3ccc(C)c(C)c3)oc2c1`, the melting point is 95 to 97 °C.
To `O=C(O)CN1C(=O)COc2cc(F)ccc21` belongs 183 to 184 °C; to `Cn1cc(CCl)c(-c2ccc(Cl)cc2C(=O)c2ccccc2F)n1`, 153 to 155 °C; to `O=C1CCC[C@@H](c2ccc(Cl)cc2)N1c1ccccc1`, 77.5 to 80 °C.
In turn, `COc1cc(C(=O)NS(=O)(=O)c2ccccc2)ccc1Cc1csc2ccc(NC(=O)OC3CCCC3)cc12` registered a melting point of 253 to 254 °C.
To `COc1cc(-c2c(-c3ccncc3)c(-c3ccc(F)cc3)nn2CCO)ccn1` belongs 168 to 169 °C; to `COc1ccc(Cl)cc1C(=O)NCc1ccc(CCC(=O)O)cc1`, 152 to 153 °C.
The same measure for `COC(=O)CN(C)CC(=O)Nc1cccc2c1C(=O)c1c(NC(=O)CN(C)CC(=O)OC)cccc1C2=O`: 129 to 130 °C; for `Cc1noc(NC(=O)N2CCN(c3nccc(-c4ccc(F)c(F)c4)n3)CC2)c1C`: 214 to 215 °C.
The same measure for `COc1cc(CO)c(-c2cccc(OCCC(C)CCCC(C)C)c2)cc1CO` (stereo not drawn): 55 °C.
Molecule `CCCc1c(OCC(O)CS(=O)(=O)c2ccc(CC(=O)OC)c(F)c2)ccc(C(C)=O)c1O` (stereo not drawn) showed a melting point of 118 to 119 °C.
The same measure for `Cc1ccccc1C=C(C(=O)O)C(=O)O`: 197 to 200 °C; for `N#Cc1cc(C2=NOC(c3cc(Cl)cc(Cl)c3)(C(F)(F)F)C2)ccc1-n1cncn1` (stereo not drawn): 118 to 125 °C.
For `COc1ccc(C(=O)N2c3ccccc3C(n3c4ccccc4c4ccccc43)=CC2C)cc1OC` (stereo not drawn), the melting point is 184 to 185 °C.
On to `CC(=O)c1nc(N)nc(N)c1-c1ccc(Cl)cc1`, for which the melting point lay in the range of 206 to 208 °C.
To `CC(CS)C(=O)N1CCCC1C(=O)NC(C)C(=O)O` (stereo not drawn) belongs 128 to 130 °C.
The same measure for `O=C(O)c1ccccc1CNC(=O)C1Cc2ccccc2N1S(=O)(=O)c1ccc(-c2cccc(C(F)(F)F)c2)cc1` (stereo not drawn): 118 °C; for `c1cc(OCC2CO2)c2nsnc2c1` (stereo not drawn): 65 to 67 °C; for `CCOC(CCc1c(N(C(C)=O)C(C)=O)nc(NC(C)=O)[nH]c1=O)OCC`: 126 to 137 °C.
To `Cc1c(-c2ccncc2)nc2n(c1=O)CCCN2` belongs 242 to 243 °C.
In turn, `CCCN(C)C1CCc2c(cccc2NC(C)=O)C1` (stereo not drawn) yielded a melting point of 78 °C.
To `CCCCC(NC(=O)C(CC(C)C)NC(=O)c1ccc2ccccc2c1)C(=O)CSCc1ccco1` (stereo not drawn) belongs 97 to 99 °C; to `O=C(Nc1cc([N+](=O)[O-])ccc1F)C(F)(F)F`, 112 to 113 °C.
The same measure for `Cc1c(OCCCCCCC(=O)N(CCO)C2CCCCC2)ccc2c1CN1CC(=O)NC1=N2`: 148 to 150 °C; for `COc1ccc(CCCc2cnc(N)nc2N)cc1`: 151 to 154 °C.
To `Cc1cc(Cl)cc(OC2=NS(=O)(=O)CS2)c1` belongs 151 °C; to `C=C(C)C(=O)Nc1nc(CCC)n(Cc2ccc(-c3ccccc3-c3nnn[nH]3)cc2)c1C(=O)OCC`, 134 to 136 °C; to `CCC1C(C)=NN=C(c2ccc(O)c(OC)c2)c2cc(OC)c(O)cc21` (stereo not drawn), 210 to 212 °C.
In turn, `CC(NC(=O)C(N)Cc1ccccc1)C(N)=O` (stereo not drawn) displayed a melting point of 95 to 97 °C.
The same measure for `COc1ccc(C(O)CCN2CC=C(c3ccc(Cl)cc3)CC2)c(OC)c1` (stereo not drawn): 112 to 114 °C; for `CC(C)C1CC(=O)C(C(=O)NS(=O)(=O)c2ccccc2)C(=O)C1` (stereo not drawn): 112 to 114 °C.
The same measure for `CCCOC(=O)C1=C(C)NC(C)=C(C(=O)OCC2CC2)C1c1cccc([N+](=O)[O-])c1` (stereo not drawn): 167 to 168 °C.
For the molecule `COc1cc2c(Cl)nc(-c3ccc(Cl)cc3)nc2c(OC)c1OC`, the melting point worked out at 159 °C.
The same measure for `Clc1ccc(C(Cn2cncn2)OCc2ccccc2Cl)c(Cl)c1` (stereo not drawn): 106 °C; for `O=C(c1cc(-c2ccncc2)c(N2CCOCC2)s1)c1ccc(Cl)cc1Cl`: 180 °C.
The same measure for `CC(C)(C)OC(=O)c1ccc(C=NON)cc1`: 153 to 155 °C.
The same measure for `C(=Nn1ccnc1N1CCOCC1)c1ccccc1`: 59 to 61 °C.
Molecule `C=Cc1ccc(OC)cc1C1C(C(=O)OC)=C(C)NC(C)=C1C(=O)OC` had a melting point of 141 to 143 °C.
`N#Cc1c(OCCOc2ccccc2)cccc1[N+](=O)[O-]` displayed a melting point of 129 to 138 °C.
To `CCOC(=O)C=CC(C)=CC=C(C)C=CC1=C(C)CCCC1(C)C` belongs 65 to 66 °C; to `NCC1(Cc2ccc(CC(=O)O)cc2)CCC1`, greater than 255 °C.
To `COc1ccc(C(O)(c2ccc(OC)cc2)[C@@H](N)C2CCCCC2)cc1` belongs 146 to 147 °C; to `COC1(OC)CC(Nc2ncnc3c2ncn3C2OC(CO)C(O)C2O)NC1=O` (stereo not drawn), 176 to 178 °C; to `CC1CCCC(C)N1S(=O)(=O)N[C@@H](Cc1ccc(NC(=O)c2c(Cl)cccc2Cl)cc1)C(=O)O` (stereo partly drawn), 159 °C.
The same measure for `CCOc1ccc(-c2ccc3c(c2)C=C(C(=O)Nc2ccc(CN(C)C4CCOCC4)cc2)CCO3)cc1`: 174 to 176 °C; for `CN1CC(c2ccc(Cl)cc2)C(=O)C(c2cccc(C(F)(F)F)c2)C1` (stereo not drawn): 116 °C; for `OC(c1cncs1)(c1cncs1)C(F)(F)F`: 109 to 110 °C.
`CCCN(CCC)CC1CCCCN1CCNC(=O)N1c2ccccc2NC(=O)c2cccnc21` (stereo not drawn) showed a melting point of 149 to 151 °C.
To `CCC(=O)Cc1ccc(C(=O)Nc2ccc3cc(C(C)N4CCCC4)cnc3c2C)cc1` (stereo not drawn) belongs 123 to 127 °C; to `CNCCOc1ccc(C=CC(=O)N2CCc3c([nH]c4ccccc34)C2c2ccc3c(c2)CCO3)cc1` (stereo not drawn), 145 °C; to `CC(C)(C)OC(=O)N1CCN(c2cc(Cl)ccc2N)CC1`, 125 to 127 °C.
`O=C(O)CCC(Cc1ccccc1Cl)(C(=O)C=Cc1cccc(Cl)c1)c1ccccc1` (stereo not drawn) had a melting point of 170 to 172 °C.
The same measure for `O=[N+]([O-])c1cc(Cl)ccc1CBr`: 42 to 43 °C.
Molecule `N#Cc1c(N2CCN(C(=O)c3ccco3)CC2)c2cc(Cl)cnc2n(CC(=O)c2ccccc2)c1=O` returned a melting point of 328 °C.
The same measure for `O=C1N(Cc2ccc(=O)[nH]c2)c2ccccc2C12COc1cc3c(cc12)OCO3` (stereo not drawn): 247 to 250 °C.
The same measure for `CC(=O)c1ccc(OCCCOc2cc(N)c(C)cc2Br)c(CCC(F)(F)F)c1O`: 124 to 126 °C; for `O=Cc1cc(-c2ccc(O)cc2)c2occc2c1`: 154 to 155 °C; for `CC(C)(O)COc1c(-c2ccc(S(C)(=O)=O)cc2)cnn(-c2ccc(F)c(Cl)c2)c1=O`: 122 to 124 °C.
To `O=C(Nc1ccc(Oc2ccnc(N3CCC(O)CC3)n2)c2ccccc12)c1cc(F)cc(N2CCCCC2)c1` belongs 182 to 184 °C.
For `Cc1cccc2c1N(C(=O)OC(C)(C)C)CC(=O)N2`, the melting point lay within 175 to 177 °C.
To `C[C@H]1C[C@@](O)(c2cccc(Sc3ccc4c(c3)CCC(=O)N4)c2)CCO1` belongs 180 to 181 °C.
To `CC(=O)OCc1nn(C(C)=O)c2cccc(OCc3ccccc3)c12` belongs 99 to 100 °C; to `CC12CCC(O)CC1CCC1C2CCC2(C)C(=O)CCC12O` (stereo not drawn), 214 to 217 °C.
To `O=C1c2ccc(O)cc2C(=O)C1c1ccc(O)cc1` (stereo not drawn) belongs 227 to 228 °C.
`CC(=NO)c1ccc2c(c1)CCc1c(O)cc(O)cc1S2` gave a melting point of 215 to 218 °C.
The same measure for `Cc1c(N2CCC(N)C(C)(C)C2)c(F)cc2c(=O)c(C(=O)O)cn(C3CC3)c12` (stereo not drawn): 195 to 198 °C; for `O=C1CCCCCC1c1ncc[nH]1` (stereo not drawn): 68 to 69 °C.
